Non-standard residues stand in square brackets, D forms with d. Residues, ends and D or L forms follow the SMILES beside them. *: point of attachment. Sta = CC(C)C[C@H](N)[C@@H](O)CC(=O)O; Isovaleryl = CC(C)CC(=O)*
Tests used:
hypertensive rats = assay: blood pressure in rats with renal hypertension (aortic ligature between the renal arteries); assay type: in vivo, rat; conditions: for decrease of blood pressure: intravenous 350 nmoles, thirteen Saralasin-responder rats, pooled value (2 rats methyl ester, 11 rats arginine salt)
Method: The experimental model of renal hypertension developped in rats by ROJO-ORTEGA and GENEST [Can. J.Phys. Pharm. 46 883-885 (1968)] was used.
A complete ligature of the aorta between the renal arteries was performed in twenty male Sprague-Dawley rats, weighing 300 g. They were investigated between 5 and 10 days after surgery. The blood pressure was measured in the conscious unrestrained rats, through a carotid cannula inserted 24 hours before measurements were made.
The maximal decrease in blood pressure induced by an injection of "Saralasin" was compared [Sar 1, Ala-8 Angiotensin II] in the same animals, to the maximum fall in blood pressure induced by the soluble derivatives of pepstatin according to the invention.
In these thirteen rats, the average blood pressure decrease was 44.5±8.5 mmHg. The intravenous injection of 350 nmoles of pepstatinyl-Arginine-O-Methyl Ester (2 rats), or the Arginine salt of Pepstatinyl (11 rats) decreased blood pressure by 48.3±8.2 mmHg. The maximal fall in blood pressure was obtained 5 minutes after Saralasin, and 6 minutes after soluble pepstatin. Blood pressure returned to the control level 10 minutes after the injection of both inhibitors.

hog renin = assay: in vitro inhibition of hog renin on synthetic N-acetylated tetradecapeptide substrate, fluorimetry, Dixon plot; assay type: biochemical; conditions: 10 milli-Goldblatt units hog renin, pH 6, one hour, 37° C., Dixon representation; read-out: inhibition constant
Method: 10 milli-Goldblatt units of hog renin, from the same source as above, were incubated at pH 6 for one hour at 37° C. in the presence of a synthetic substrate constituted by a N-acetylated renin tetradecapeptide [GALEN et al. Biochem. Biophys. Acta, 523, 485-493 (1978)]. The tetrapeptide quantity produced per hour of incubation was measured by fluorimetry. Three different concentrations of N-acetylated tetradecapeptide were used, that is to say 2.3, 4.6 and 9.3 nmoles with increasing amounts of pepstatin or methyl ester of pepstatin-[…].25, 0.50 and 0.75 10^-6 mole/l).

Compound: CNCC(=O)N[C@@H](CCCN=C(N)N)C(=O)N[C@H](C(=O)N[C@@H](Cc1ccc(O)cc1)C(=O)N[C@H](C(=O)N[C@@H](Cc1cnc[nH]1)C(=O)N1CCC[C@H]1C(=O)N[C@@H](C)C(=O)O)C(C)C)C(C)C [Saralasin, Sar 1, Ala-8 Angiotensin II]
- rats with a blood pressure fall of 10 mmHg and more (hypertensive rats; among 20 hypertensive rats, intravenous 140 nmoles): 13 rats
- time of maximal fall in blood pressure after injection (hypertensive rats; intravenous 140 nmoles): 5 min
- time of return of blood pressure to the control level after injection (hypertensive rats; intravenous 140 nmoles): 10 min
- average blood pressure decrease (hypertensive rats; intravenous 140 nmoles, thirteen responder rats): 44.5±8.5 mmHg

Compound: COC(=O)[C@H](CCCNC(=N)N)NC(=O)C[C@H](O)[C@H](CC(C)C)NC(=O)[C@H](C)NC(=O)C[C@H](O)[C@H](CC(C)C)NC(=O)[C@@H](NC(=O)[C@@H](NC(=O)CC(C)C)C(C)C)C(C)C [methyl ester of pepstatin-arginine] (Isovaleryl-VV[Sta]A[Sta]R-OMe)
- Ki (hog renin): 315 nM
- decrease of blood pressure (hypertensive rats): 48.3±8.2 mmHg

Compound: CC(C)CC(=O)N[C@H](C(=O)N[C@H](C(=O)N[C@@H](CC(C)C)[C@@H](O)CC(=O)N[C@@H](C)C(=O)N[C@@H](CC(C)C)[C@@H](O)CC(=O)N[C@@H](CCCNC(=N)N)C(=O)O)C(C)C)C(C)C [pepstatin-arginine] (Isovaleryl-VV[Sta]A[Sta]R-OH)
- decrease of blood pressure (hypertensive rats): 48.3±8.2 mmHg

— patent US4185096A, “Novel derivatives of pepstatin, their preparation and compositions containing them” (Agence Nationale de Valorisation de la Recherche (ANVAR), priority 1977, dated 1980)
